Test results reported in patent publication US12403192B2, “Nanoemulsion compositions for preventing, suppressing or eliminating allergic and inflammatory disease” (priority 2014, dated 2025).

System: virus
Test: Virus inactivation by BCTP components
Conditions: concentrations equivalent to 11% BCTP
Description: Individual components of nanoemulsions (e.g. in an immunogenic composition of the present invention) can function both to inactivate a pathogen as well as to contribute to the non-toxicity of the emulsions. […] Adding the oil phase to the detergent and solvent markedly reduces the toxicity of these agents in tissue culture at the same concentrations. […] Furthermore, when all the components of BCTP are combined in one composition but are not in a nanoemulsion structure, the mixture is not as effective at inactivating a pathogen as when the components are in a nanoemulsion structure.

TRITON-X100
ability to inactivate a virus: less ability
